Read-outs that look alike come from different tables or passages of the source.
Key:
[1] = system: male Sprague Dawley rats; format: in vivo, rat
Method: Decreases in spontaneous locomotor and/or exploratory activity: Immediately after administration of each bolus injection, the animal was assessed for any changes in spontaneous locomotor and/or exploratory activity. […] If the spontaneous righting reflex (see here below) had not been lost after dosing but sedation was observed, the animal was monitored at regular intervals to assess the duration of the induced sedation.

[2] = system: male Sprague Dawley rats; format: in vivo, rat; remark: listed apart in the source
Method: The spontaneous righting reflex: Before and at a series of set time points following each bolus injection, the animal was placed on its back and righting time measured. Righting normally occurs under 15 seconds. Whenever the animal was unable to right itself, it was considered that the spontaneous righting reflex had been lost and unconsciousness induced.
Duration of unconsciousness: The time lapse since the loss of the spontaneous righting reflex until its recovery was recorded and considered a measurement of the overall duration of unconsciousness.

[3] = system: mice; details: 0.5-2 mg/kg i.p.; cited from earlier work
[4] = system: monkeys; details: drug-discrimination study; cited from earlier work
[5] = system: mice; details: cited from earlier work
[6] = system: Rhesus monkeys; details: cited from earlier work
[7] = biological target: KOR (Homo sapiens, UniProt P41145); details: cited from earlier work
[8] = biological target: DOR (Homo sapiens, UniProt P41143); details: cited from earlier work
[9] = system: rats; details: 0.25-2 mg/kg i.p.; cited from earlier work
[10] = system: healthy humans; details: cited from earlier work
[11] = system: rats; details: 1.0-3.0 mg/kg i.p.; cited from earlier work
[12] = biological target: MOR (Homo sapiens, UniProt P35372); details: cited from earlier work
[13] = system: rats; details: 10 mg/kg i.p.; cited from earlier work
[14] = system: rats; details: cited from earlier work

Sequence of KOR (P41145 whole entry): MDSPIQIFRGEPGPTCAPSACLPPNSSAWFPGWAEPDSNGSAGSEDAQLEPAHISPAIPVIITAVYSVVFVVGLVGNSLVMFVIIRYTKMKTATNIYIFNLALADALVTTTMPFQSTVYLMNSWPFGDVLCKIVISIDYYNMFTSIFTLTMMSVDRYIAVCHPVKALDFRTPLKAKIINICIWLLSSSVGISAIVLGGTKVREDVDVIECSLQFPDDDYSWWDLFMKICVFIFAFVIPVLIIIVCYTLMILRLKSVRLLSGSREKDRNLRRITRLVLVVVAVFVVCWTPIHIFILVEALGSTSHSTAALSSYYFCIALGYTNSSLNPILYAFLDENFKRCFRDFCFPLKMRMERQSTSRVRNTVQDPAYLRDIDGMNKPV
Sequence of MOR (P35372 whole entry): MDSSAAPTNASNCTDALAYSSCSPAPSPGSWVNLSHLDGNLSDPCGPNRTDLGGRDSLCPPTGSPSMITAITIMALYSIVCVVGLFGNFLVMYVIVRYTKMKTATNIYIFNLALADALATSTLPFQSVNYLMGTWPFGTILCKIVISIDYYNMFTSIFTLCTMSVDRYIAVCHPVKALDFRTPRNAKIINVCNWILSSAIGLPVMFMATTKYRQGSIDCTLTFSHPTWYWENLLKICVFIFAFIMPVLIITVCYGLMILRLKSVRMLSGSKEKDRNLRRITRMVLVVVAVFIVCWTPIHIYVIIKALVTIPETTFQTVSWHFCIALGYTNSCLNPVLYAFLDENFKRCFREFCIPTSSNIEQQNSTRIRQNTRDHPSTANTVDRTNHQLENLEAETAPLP
Sequence of DOR (P41143 whole entry): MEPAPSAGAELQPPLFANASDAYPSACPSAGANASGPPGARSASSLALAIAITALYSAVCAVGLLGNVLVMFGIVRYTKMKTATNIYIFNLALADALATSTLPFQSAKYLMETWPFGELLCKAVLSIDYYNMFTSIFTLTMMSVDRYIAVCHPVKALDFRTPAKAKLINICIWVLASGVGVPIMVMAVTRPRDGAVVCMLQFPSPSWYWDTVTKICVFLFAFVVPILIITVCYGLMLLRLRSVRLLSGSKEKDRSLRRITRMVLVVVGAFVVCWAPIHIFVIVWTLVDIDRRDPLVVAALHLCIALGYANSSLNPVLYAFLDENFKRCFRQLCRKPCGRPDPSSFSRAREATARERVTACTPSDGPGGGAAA

## Cc1cccc(C(C)c2cnc[nH]2)c1C (centres unmarked) [medetomidine, Medetomidine, reference compound]
[1]; rat, in vivo
  sedation: sedative effect
  sedation lasted until: 30 min
  time to sedation after the injection: 30 s
[2]; rat, in vivo
  loss of consciousness or general anesthesia: did not induce loss of consciousness or general anesthesia
  righting time (spontaneous righting reflex): 2 to 3 s

## COC(=O)[C@@H]1C[C@H](OC(C)=O)C(=O)[C@H]2[C@@]1(C)CC[C@H]1C(=O)O[C@H](c3ccoc3)C[C@]21C [SA, Salvinorin A]
[3]
  sedation and coordination: mild sedation and a loss of coordination
[4]
  generalization between SA and ketamine: did not find that any generalization between the two drugs is applicable
[5]; 7.5 μg intracerebroventricularly
  analgesic effects: active
[5]; 5 mg/kg i.p.
  analgesic effects: no analgesic effects
[5]; 0.5-4 mg/kg intraperitoneally
  antinociceptive effects: dose-dependent antinociceptive effects
[6]; 0.032 mg/kg i.v.
  sedation: sedative effects
[6]; 0.032 mg/kg s.c.
  sedation: did not lead to overt sedation
[6]; i.v., maximum dose of 0.1 mg/kg
  sedation: sedative effects
[1]; SA alone 6.2 mg/kg i.v.
  time at which locomotor and exploratory activity were comparable to pre-injection values: 30 min
[1]; SA alone 6.2 mg/kg i.v., Example 2 Rat number 2
  sedation: mild sedation
[1]; SA alone 6.4 mg/kg i.p.
  time at which locomotor and exploratory activity were comparable to baseline: 30 min
[1]; SA alone 6.4 mg/kg i.p., Example 1 Rat number 2
  sedation: light sedation
[1]; SA alone 12.0 mg/kg i.v.
  time at which locomotor and exploratory activity were comparable to pre-injection values: 30 min
[1]; SA alone 12.0 mg/kg i.v., Example 2 Rat number 3
  sedation: mild sedation
[1]; SA alone 12.9 mg/kg i.p.
  time at which locomotor and exploratory activity were comparable to baseline: 40 min
[1]; SA alone 12.9 mg/kg i.p., Example 1 Rat number 3
  sedation: slight sedation of longer duration
[7]
  affinity and potency values at the KOR: nanomolar range
  type of activity at the KOR: full agonist
[8]
  affinity for the DOR: no affinity
[9]
  immobility in the forced swimming test: increased immobility
[10]; acute administration to humans
  acute effects in humans: intense visual and auditory hallucinations without loss of consciousness
[10]; humans
  dose at which the effects are already noticeable: 0.25 mg
  psychometric measurements of sedation (PCAG subscale of the Addiction Research Center Inventory): no significant dose-dependent increases
[11]
  changes in response rates: No significant changes
[12]
  affinity for the MOR: no affinity
[2]; SA alone 6.2 mg/kg i.v.
  loss of consciousness or general anesthesia: no loss of consciousness or general anesthesia
[2]; SA alone 6.2 mg/kg i.v., 10 minutes after injection
  righting time (spontaneous righting reflex): 8 s
[2]; SA alone 6.4 mg/kg i.p.
  loss of consciousness or general anesthesia: no loss of consciousness or general anesthesia
[2]; SA alone 6.4 mg/kg i.p., 1-40 min after injection
  righting time (spontaneous righting reflex): 1 to 2 s
[2]; SA alone 12.0 mg/kg i.v.
  loss of consciousness or general anesthesia: no loss of consciousness or general anesthesia
[2]; SA alone 12.0 mg/kg i.v., 5 minutes after injection
  righting time (spontaneous righting reflex): 12 s
[2]; SA alone 12.9 mg/kg i.p.
  loss of consciousness or general anesthesia: no loss of consciousness or general anesthesia
[2]; SA alone 12.9 mg/kg i.p., 1-40 min after injection
  righting time (spontaneous righting reflex): 1 to 2 s
[13]
  antinociceptive effects: no effects
[14]; 0.25-2 mg/kg i.p., rats
  effect on spontaneous locomotor activity: did not affect spontaneous locomotor activity
[14]; 0.4 and 0.64 mg/kg subcutaneously, rats
  effect on locomotor activity: had no effects
[14]; repeated daily injections of 2 mg/kg i.p.
  effect on locomotor activity: increased locomotor activity
[14]; single 2 mg/kg i.p.
  effect on locomotor activity: no effect

## CN1C(=O)CN=C(c2ccccc2)c2cc(Cl)ccc21 [diazepam, Diazepam, reference compound]
[1]; rat, in vivo
  sedation: clear sedation
  time of full recovery of spontaneous locomotor and exploratory activity: 1 h
  time of partial recovery of spontaneous locomotor and exploratory activity: 30 min
  time to decrease in spontaneous locomotor and exploratory activity: 1 min
  time to sedation: immediately after the end of the injection
[2]; rat, in vivo
  loss of consciousness or general anesthesia: did not induce loss of consciousness or general anesthesia
  righting time (spontaneous righting reflex): 2 to 3 s
